We go through 34 molecules from US7629349B2, “Pyrazolo [3,4-d] pyrimidine derivatives and their use as purinergic receptor antagonists” (Vernalis Research Limited, priority 2001, dated 2009).

Structures can show the parent of a compound that is named as a salt.

The first series deals with human adenosine A2A receptor (Homo sapiens, UniProt P29274). The experiment in a line: Binding affinities at hA2A receptors, displacement of [3H]-CGS 21680.
Sequence of human adenosine A2A receptor (P29274 whole entry): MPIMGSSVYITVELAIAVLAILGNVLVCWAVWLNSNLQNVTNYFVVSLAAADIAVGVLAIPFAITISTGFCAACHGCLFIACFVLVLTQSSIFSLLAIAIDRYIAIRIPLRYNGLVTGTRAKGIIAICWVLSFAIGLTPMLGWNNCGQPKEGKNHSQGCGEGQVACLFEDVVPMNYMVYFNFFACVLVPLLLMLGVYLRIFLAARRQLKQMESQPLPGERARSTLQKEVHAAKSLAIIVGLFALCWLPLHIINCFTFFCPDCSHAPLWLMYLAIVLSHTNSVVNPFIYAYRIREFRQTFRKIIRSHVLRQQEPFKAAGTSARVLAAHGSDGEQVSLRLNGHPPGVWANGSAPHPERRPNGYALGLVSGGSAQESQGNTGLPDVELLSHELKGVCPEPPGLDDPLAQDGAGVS
Settings: not given
(Displacement assays read how much labelled ligand stays bound in the presence of the test substance.)
The term Ki denotes the equilibrium dissociation constant of an inhibitor or competing ligand from its target. A high value points to a looser hold on the target. On to `Cc1cccc(Cn2ncc3c(-c4ccco4)nc(N)nc32)c1` [Example 15, 4-(2-furyl)-1-(3-methylbenzyl)-1H-pyrazolo[3,4-d]pyrimidine-6-amine], for which the inhibition constant Ki was 2 nM. `Nc1nc(-c2ccco2)c2cnn(Cc3ccccc3F)c2n1` [Example 14, 1-(2-fluorobenzyl)-4-(2-furyl)-1H-pyrazolo[3,4-d]pyrimidine-6-amine]: the Ki was 2 nM.

Molecule `Nc1nc(-c2ccco2)c2cnn(CCCc3ccccc3)c2n1` [Example 31, 4-(2-furyl)-1-(3-phenylpropyl)-1H-pyrazolo[3,4-d]pyrimidine-6-amine] registered a Ki of 2 nM. Consider `Nc1nc(-c2cccs2)c2cnn(Cc3ccccc3F)c2n1` [Example 28, 1-(2-fluorobenzyl)-4-(2-thienyl)-1H-pyrazolo[3,4-d]pyrimidine-6-amine], for which the affinity corresponds to a Ki of 5 nM. Consider `Nc1nc(-c2nnc[nH]2)c2cnn(Cc3ccccc3F)c2n1` [Example 51, 1-(2-fluorobenzyl)-4-(1,2,4-triazol-3-yl)-1H-pyrazolo[3,4-d]pyrimidine-6-amine], for which the affinity, expressed as Ki, was 71 nM.

The same series, now with this note: human adenosine A2A receptor, radioligand [3H]-CGS 21680.
The molecule `Nc1nc(-c2ccco2)c2cnn(Cc3cccc([N+](=O)[O-])c3)c2n1` [Example 30, 4-(2-furyl)-1-(3-nitrobenzyl)-1H-pyrazolo[3,4-d]pyrimidine-6-amine] came in with a Ki of 4 nM. Turning to `Nc1nc(-c2ccco2)c2cnn(Cc3ccccc3N)c2n1` [Example 56, 1-(2-aminobenzyl)-4-(2-furyl)-1H-pyrazolo[3,4-d]pyrimidine-6-amine], the inhibitory constant (Ki) was 8 nM. The molecule `Nc1nc(-c2ccccn2)c2cnn(Cc3ccccc3F)c2n1` [Example 33, 1-(2-fluorobenzyl)-4-(2-pyridyl)-1H-pyrazolo[3,4-d]pyrimidine-6-amine] displayed a Ki of 12 nM.

Take `Nc1nc(-c2ccn[nH]2)c2cnn(Cc3ccccc3F)c2n1` [Example 55, 1-(2-fluorobenzyl)-4-(3-pyrazolyl)-1H-pyrazolo[3,4-d]pyrimidine-6-amine]: the affinity, expressed as Ki, was 16 nM. Still for that read-out and setting: next, `Nc1nc(-c2ccco2)c2cnn(Cc3ccccc3Cl)c2n1` [Example 11, 1-(2-chlorobenzyl)-4-(2-furyl)-1H-pyrazolo[3,4-d]pyrimidine-6-amine]: 9 nM; `Nc1nc(-c2ccco2)c2cnn(Cc3ccc(C(F)(F)F)cc3)c2n1` [Example 22, 4-(2-furyl)-1-(4-trifluoromethylbenzyl)-1H-pyrazolo[3,4-d]pyrimidine-6-amine]: 6 nM. On the same count and under the same terms, next, `COc1cccc(Cn2ncc3c(-c4ccco4)nc(N)nc32)c1` [Example 12, 4-(2-furyl)-1-(3-methoxybenzyl)-1H-pyrazolo[2,4-d]pyrimidine-6-amine]: 2 nM; `Nc1nc(-c2ccco2)c2cnn(Cc3c(F)cccc3F)c2n1` [Example 24, 1-(2,6-difluorobenzyl)-4-(2-furyl)-1H-pyrazolo[3,4-d]pyrimidine-6-amine]: 2 nM.

For the molecule `Nc1cccc(Cn2ncc3c(-c4ccco4)nc(N)nc32)c1` [Example 32, 1-(3-aminobenzyl)-4-(2-furyl)-1H-pyrazolo[3,4-d]pyrimidine-6-amine], the Ki came to 4 nM.

In the next series the test system is catalepsy.
Assay: not given
The following applies: in vivo; cited from earlier work.
Turning to `CCCn1c(=O)c2c(nc(/C=C/c3ccc(OC)c(OC)c3)n2C)n(CCC)c1=O` [KF 17837, (E)-8-(3,4-dimethoxystyryl)-1,3-dipropyl-7-methylxanthine], the “anticataleptic effects of a subthreshold dose of L-DOPA plus benserazide” value is reported as “potentiated”; the “catalepsy induced by haloperidol and reserpine” value is “reduced”.

Still in this series, the particulars now being: oral administration; cited from earlier work.
For the molecule `CCCn1c(=O)c2c(nc(/C=C/c3ccc(OC)c(OC)c3)n2C)n(CCC)c1=O` [KF 17837, (E)-8-(3,4-dimethoxystyryl)-1,3-dipropyl-7-methylxanthine], the “cataleptic responses induced by intracerebroventricular CGS 21680” value is given as “significantly ameliorated”.

System in another series: not given
Assay: not given
Settings: not given
Usually melting point stands for the temperature, or range, at which the solid turns liquid. Regarding `Clc1nc(-c2ccco2)c2cnn(CCc3ccccc3)c2n1` [Example 1, 6-chloro-4-(2-furyl)-1-(2-phenylethyl)-1H-pyrazolo[3,4-d]pyrimidine], the melting point was in the range of 85.1 to 85.6 °C. As to `COc1cccc(Cn2ncc3c(-c4ccn[nH]4)nc(N)nc32)c1` [Example 64, 1-(3-methoxybenzyl)-4-(1H-pyrazol-3-yl)-1H-pyrazolo[3,4-d]pyrimidine-6-amine], the melting point lay within 171 to 172 °C. The same measure, in the same setting: next, `Nc1nc(-c2ccco2)c2cnn(CC(=O)NCCc3ccccc3)c2n1` [Example 44, 6-amino-4-(2-furyl)-N-(2-phenylethyl)-1H-pyrazolo[3,4-d]pyrimidin-1-ylacetamide]: 231.1 to 231.2 °C; `Nc1nc(-c2ccco2)c2cnn(CC(=O)NCc3ccco3)c2n1` [Example 37, 6-amino-4-(2-furyl)-N-(2-furylmetyl)-1H-pyrazolo[3,4-d]pyrimidin-1-ylacetamide]: 247.9 to 249.4 °C.

`Nc1nc(-c2ccco2)c2cnn(CC(=O)Nc3ccccn3)c2n1` (as salt: HCl) [Example 29, 6-amino-4-(2-furyl)-N-(2-pyridyl)-1H-pyrazolo[3,4-d]pyrimidin-1-ylacetamide] displayed a melting point of 249.8 to 249.9 °C.

With `Nc1nc(-c2ccco2)c2cnn(CC(=O)NCc3ccccc3)c2n1` [Example 34, 6-amino-N-benzyl-4-(2-furyl)-1H-pyrazolo[3,4-d]pyrimidin-1-ylacetamide], the melting point was 276.8 to 277.2 °C. In turn, `Nc1nc(-c2nccs2)c2cnn(Cc3cccc([N+](=O)[O-])c3)c2n1` [Example 61, 1-(3-nitrobenzyl)-4-(2-thiazolyl)-1H-pyrazolo[3,4-d]pyrimidine-6-amine] yielded a melting point of 193.3 to 193.4 °C. With `CC(C)(C)OC(=O)n1ncc2c(-c3ccco3)nc(N)nc21` [Example 4, tert-butyl 6-amino-4-(2-furyl)-1H-pyrazolo[3,4-d]pyrimidine-1-carboxylate], the melting point is 261.9 to 262.7 °C.

For `Nc1nc(-c2ccn[nH]2)c2cnn(Cc3cccc([N+](=O)[O-])c3)c2n1` [Example 59, 1-(3-nitrobenzyl)-4-(3-pyrazolyl)-1H-pyrazolo[3,4-d]pyrimidine-6-amine], the melting point lay within 278.5 to 279 °C.

Take `Nc1nc(-c2ccco2)c2cnn(CC(=O)Nc3ccccc3F)c2n1` [Example 45, 6-amino-N-(2-fluorophenyl)-4-(2-furyl)-1H-pyrazolo[3,4-d]pyrimidin-1-ylacetamide]: the melting point fell in the range of 276.2 to 278.5 °C. In the case of `Nc1nc(-c2ccco2)c2cnn(CC(=O)Nc3ccccc3)c2n1` [Example 35, 6-amino-4-(2-furyl)-N-phenyl-1H-pyrazolo[3,4-d]pyrimidin-1-ylacetamide], the melting point lay in the range of 276.8 to 277.2 °C. On to `Cc1ccc(Cn2ncc3c(-c4ccn[nH]4)nc(N)nc32)cc1` [Example 50, 1-(4-methylbenzyl)-4-(1H-pyrazol-3-yl)-1H-pyrazolo[3,4-d]pyrimidine-6-amine], for which the melting point worked out at 265.8 °C. As to `CCCCCn1ncc2c(-c3ccco3)nc(N)nc21` (as salt: HCl) [Example 23, 4-(2-furyl)-1-n-pentyl-1H-pyrazole[3,4-d]pyrimidine-6-amine], the melting point was found to be 218 °C. As to `CCOC(=O)Cn1ncc2c(-c3ccco3)nc(N)nc21` [Example 26, ethyl 6-amino-4-(2-furyl)-1H-pyrazolo[3,4-d]pyrimidine-1-ylacetate], the melting point lay in the range of 177 to 177.1 °C. `Nc1cccc(Cn2ncc3c(-c4nnc[nH]4)nc(N)nc32)c1` [Example 60, 1-(3-aminobenzyl)-4-(1,2,4-triazol-3-yl)-1H-pyrazolo[3,4-d]pyrimidine-6-amine] had a melting point of 193.3 to 193.4 °C. For `Nc1cccc(Cn2ncc3c(-c4nccs4)nc(N)nc32)c1` [Example 62, 1-(3-aminobenzyl)-4-(2-thiazolyl)-1H-pyrazolo[3,4-d]pyrimidine-6-amine], the melting point fell in the range of 177.8 to 178.3 °C. Molecule `CC(C)n1ncc2c(-c3ccco3)nc(N)nc21` (as salt: HCl) [Example 21, 4-(2-furyl)-1-(1-methylethyl)-1H-pyrazolo[3,4-d]pyrimidine-6-amine] yielded a melting point of 191.4 to 191.5 °C.

`Nc1nc(-c2nnc[nH]2)c2cnn(Cc3ccccc3F)c2n1` [Example 51, 1-(2-fluorobenzyl)-4-(1,2,4-triazol-3-yl)-1H-pyrazolo[3,4-d]pyrimidine-6-amine] displayed a melting point of 287.9 °C. Same read-out and setting: next, `COc1cccc(NC(=O)Cn2ncc3c(-c4ccco4)nc(N)nc32)c1` [Example 43, 6-amino-4-(2-furyl)-N-(3-methoxyphenyl)-1H-pyrazolo[3,4-d]pyrimidin-1-ylacetamide]: 267.4 to 271.5 °C.

The test system of another series is Parkinsonian patients.
Assay: not given
The conditions noted are these: 15 Parkinsonian patients, up to 12 weeks, 150 mg/day oral; cited from earlier work.
Regarding `Cn1c(=O)c2[nH]cnc2n(C)c1=O` [theophylline, 1,3-dimethylxanthine], the “mean objective disability scores” value is given as “significant improvements”.

Still in this series, the particulars now being: of 15 Parkinsonian patients, up to 12 weeks, 150 mg/day oral; cited from earlier work.
Consider `Cn1c(=O)c2[nH]cnc2n(C)c1=O` [theophylline, 1,3-dimethylxanthine], for which the “patients reporting moderate or marked subjective improvement” value was 11.

Staying with this series, now noted: slow release oral theophylline preparation 150 mg/day, after one week; cited from earlier work.
On to `Cn1c(=O)c2[nH]cnc2n(C)c1=O` [theophylline, 1,3-dimethylxanthine], for which the serum theophylline levels is 4.44 mg/L.
